Reference: patent US11104676B2 (priority 2018, dated 2021)

What follows are compounds tested against GST-tagged recombinant human TYRO3 kinase domain (Homo sapiens (Human), UniProt Q06418). Details: read-out: TYRO3 enzyme IC50.
Sequence of GST-tagged recombinant human TYRO3 kinase domain (Q06418 518-790): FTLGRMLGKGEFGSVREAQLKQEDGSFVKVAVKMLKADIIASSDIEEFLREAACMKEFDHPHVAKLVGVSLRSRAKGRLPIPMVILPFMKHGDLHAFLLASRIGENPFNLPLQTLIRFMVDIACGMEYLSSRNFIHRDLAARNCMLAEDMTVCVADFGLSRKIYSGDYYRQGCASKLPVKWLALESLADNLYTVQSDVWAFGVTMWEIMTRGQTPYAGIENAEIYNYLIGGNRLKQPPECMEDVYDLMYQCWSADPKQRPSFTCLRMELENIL

Row | SMILES | IC50 [nM]
1 | COC[C@@H]1CCC[C@@H]1Nc1n[nH]c2nccc(Oc3ccc(NC(=O)c4ccnn(-c5ccc(F)cc5)c4=O)cc3F)c12 (relative stereo) [Example 28, N-(3-fluoro-4-((3-((cis-2-(methoxymethyl)cyclopentyl)amino)-1H-pyrazolo[3,4-b]pyridin-4-yl)oxy)phenyl)-2-(4-fluorophenyl)-3-oxo-2,3-dihydropyridazine-4-carboxamide] | 375
2 | O=C(Nc1ccc(Oc2ccnc3[nH]nc(NC4CC(F)(F)C4)c23)c(F)c1)c1ccnn(-c2ccc(F)cc2)c1=O [Example 12, N-(4-((3-((3,3-difluorocyclobutyl)amino)-1H-pyrazolo[3,4-b]pyridin-4-yl)oxy)-3-fluorophenyl)-2-(4-fluorophenyl)-3-oxo-2,3-dihydropyridazine-4-carboxamide] | 295
3 | COCC1(Nc2n[nH]c3nccc(Oc4ccc(NC(=O)c5ccnn(-c6ccc(F)cc6)c5=O)cc4F)c23)CCCC1 [Example 20, N-(3-fluoro-4-((3-((1-(methoxymethyl)cyclopentyl)amino)-1H-pyrazolo[3,4-b]pyridin-4-yl)oxy)phenyl)-2-(4-fluorophenyl)-3-oxo-2,3-dihydropyridazine-4-carboxamide] | 536
4 | COCCC(C)(C)Nc1n[nH]c2nccc(Oc3ccc(NC(=O)c4ccnn(-c5ccc(F)cc5)c4=O)cc3F)c12 [Example 22, N-(3-fluoro-4-((3-((4-methoxy-2-methylbutan-2-yl)amino)-1H-pyrazolo[3,4-b]pyridin-4-yl)oxy)phenyl)-2-(4-fluorophenyl)-3-oxo-2,3-dihydropyridazine-4-carboxamide] | 318
5 | C[C@H](CO)Nc1n[nH]c2nccc(Oc3ccc(NC(=O)c4cn(C)n(-c5ccccc5)c4=O)cc3F)c12 [Example 87, (R)-N-(3-fluoro-4-((3-((1-hydroxypropan-2-yl)amino)-1H-pyrazolo[3,4-b]pyridin-4-yl)oxy)phenyl)-1-methyl-3-oxo-2-phenyl-2,3-dihydro-1H-pyrazole-4-carboxamide] | 432
6 | C[C@H](CO)Nc1n[nH]c2nccc(Oc3ccc(NC(=O)c4cn(C)n(-c5ccc(F)cc5)c4=O)cc3F)c12 [Example 88, (R)-N-(3-fluoro-4-((3-((1-hydroxypropan-2-yl)amino)-1H-pyrazolo[3,4-b]pyridin-4-yl)oxy)phenyl)-2-(4-fluorophenyl)-1-methyl-3-oxo-2,3-dihydro-1H-pyrazole-4-carboxamide] | 364
7 | CC(C)n1cc(C(=O)Nc2ccc(Oc3ccnc4[nH]nc(N[C@H](C)CO)c34)c(F)c2)c(=O)n(-c2cnn(C)c2)c1=O [Example 93, (R)-N-(3-fluoro-4-((3-((1-hydroxypropan-2-yl)amino)-1H-pyrazoo[3,4-b]pyridin-4-yl)oxy)phenyl)-1-isopropyl-3-(1-methyl-1H-pyrazol-4-yl)-2,4-dioxo-1,2,3,4-tetrahydropyrimidine-5-carboxamide] | 767
8 | CC(C)n1cc(C(=O)Nc2ccc(Oc3ccnc4[nH]nc(N[C@H](C)CO)c34)c(F)c2)c(=O)n(C(C)C)c1=O [Example 95, (R)-N-(3-fluoro-4-((3-((1-hydroxypropan-2-yl)amino)-1H-pyrazolo[3,4-b]pyridin-4-yl)oxy)phenyl)-1,3-diisopropyl-2,4-dioxo-1,2,3,4-tetrahydropyrimidine-5-carboxamide] | 875
9 | CC(C)n1cc(C(=O)Nc2ccc(Oc3ccnc4[nH]nc(N[C@H](C)CO)c34)c(F)c2)c(=O)n(C2CCOCC2)c1=O [Example 99, (R)-N-(3-fluoro-4-((3-((1-hydroxypropan-2-yl)amino)-1H-pyrazolo[3,4-b]pyridin-4-yl)oxy)phenyl)-1-isopropyl-2,4-dioxo-3-(tetrahydro-2H-pyran-4-yl)-1,2,3,4-tetrahydropyrimidine-5-carboxamide] | 546
10 | C[C@H](CO)Nc1n[nH]c2nccc(Oc3ccc(NC(=O)C4CCCN(c5ccc(F)cc5)C4=O)cc3F)c12 (stereo partly drawn) [Example 101, N-(3-fluoro-4-((3-(((R)-1-hydroxypropan-2-yl)amino)-1H-pyrazolo[3,4-b]pyridin-4-yl)oxy)phenyl)-1-(4-fluorophenyl)-2-oxopiperidine-3-carboxamide] | 198
11 | CCn1nc(C(=O)Nc2ccc(Oc3ccnc4[nH]nc(N[C@@H](C)CO)c34)c(F)c2)c(=O)n(-c2ccc(F)c(F)c2)c1=O [Example 132, (S)-4-(3,4-difluorophenyl)-2-ethyl-N-(3-fluoro-4-((3-((1-hydroxypropan-2-yl)amino)-1H-pyrazolo[3,4-b]pyridin-4-yl)oxy)phenyl)-3,5-dioxo-2,3,4,5-tetrahydro-1,2,4-triazine-6-carboxamide] | 348

Compounds with a lower IC50, results first:

Row | IC50 [nM] | SMILES
12 | 192 | COCC(C)(C)Nc1n[nH]c2nccc(Oc3ccc(NC(=O)c4ccnn(-c5ccc(F)cc5)c4=O)nc3)c12 [Example 71, 2-(4-fluorophenyl)-N-(5-((3-((1-methoxy-2-methylpropan-2-yl)amino)-1H-pyrazolo[3,4-b]pyridin-4-yl)oxy)pyridin-2-yl)-3-oxo-2,3-dihydropyridazine-4-carboxamide]
13 | 188 | COCC1(Nc2n[nH]c3nccc(Oc4ccc(NC(=O)c5ccnn(-c6ccc(F)cc6)c5=O)cc4F)c23)CCC1 [Example 21, N-(3-fluoro-4-((3-((1-(methoxymethyl)cyclobutyl)amino)-1H-pyrazolo[3,4-b]pyridin-4-yl)oxy)phenyl)-2-(4-fluorophenyl)-3-oxo-2,3-dihydropyridazine-4-carboxamide]
14 | 137 | C[C@H](CO)Nc1n[nH]c2nccc(Oc3ccc(NC(=O)c4cc5c(n(-c6ccc(F)cn6)c4=O)CCCC5=O)cc3F)c12 [Example 111, (R)-N-(3-fluoro-4-((3-((1-hydroxypropan-2-yl)amino)-1H-pyrazolo[3,4-b]pyridin-4-yl)oxy)phenyl)-1-(5-fluoropyridin-2-yl)-2,5-dioxo-1,2,5,6,7,8-hexahydroquinoine-3-carboxamide]
15 | 131 | COCC(C)(C)Nc1n[nH]c2nccc(Oc3ccc(NC(=O)c4ccnn(-c5ccc(F)cc5)c4=O)cc3F)c12 [Example 18, N-(3-fluoro-4-((3-((1-methoxy-2-methylpropan-2-yl)amino)-1H-pyrazolo[3,4-b]pyridin-4-yl)oxy)phenyl)-2-(4-fluorophenyl)-3-oxo-2,3-dihydropyridazine-4-carboxamide]
16 | 130 | CCn1nc(C(=O)Nc2ccc(Oc3ccnc4[nH]nc(N[C@H](C)CO)c34)c(F)c2)c(=O)n(-c2ccc(F)c(F)c2)c1=O [Example 133, (R)-4-(3,4-difluorophenyl)-2-ethyl-N-(3-fluoro-4-((3-((1-hydroxypropan-2-yl)amino)-1H-pyrazolo[3,4-b]pyridin-4-yl)oxy)phenyl)-3,5-dioxo-2,3,4-5-tetrahydro-1,2,4-triazine-6-carboxamide]
17 | 120 | O=C(Nc1ccc(Oc2ccnc3[nH]nc(NCC4CCS(=O)(=O)C4)c23)c(F)c1)c1ccnn(-c2ccc(F)cc2)c1=O (stereo not drawn) [Example 24, N-(4-((3-(((1,1-dioxidotetrahydrothiophen-3-yl)methyl)amino)-1H-pyrazolo[3,4-b]pyridin-4-yl)oxy)-3-fluorophenyl)-2-(4-fluorophenyl)-3-oxo-2,3-dihydropyridazine-4-carboxamide]
18 | 104 | Cc1c(C(=O)Nc2ccc(Oc3ccnc4[nH]nc(N[C@H](C)CO)c34)c(F)c2)c(=O)n(-c2ccccc2)n1C [Example 86, (R)-N-(3-fluoro-4-((3-((1-hydroxypropan-2-yl)amino)-1H-pyrazolo[3,4-b]pyridin-4-yl)oxy)phenyl)-1,5-dimethyl-3-oxo-2-phenyl-2,3-dihydro-1H-pyrazole-4-carboxamide]
